Measured values from patent US20100029697A1, “SUBSTITUTED PYRIDO[3,2-E][1,2,4]TRIAZOLO[4,3-C]PYRIMIDINE DERIVATIVES AS CANNABINOID-1 RECEPTOR MODULATORS” (priority 2007, published 2010).

Assays:
[1] = target: recombinant human CB1 receptor expressed in CHO cells (Homo sapiens, UniProt P21554); test: Cannabinoid Receptor-1 (CB1) Functional Activity Assay (intracellular cAMP, forskolin-stimulated CB1-CHO cells); assay type: cell-based; details: for EC50: cAMP level in CB1-CHO cells with forskolin; for functional mode at CB1 receptor in the CB1 functional activity assay: cAMP readout in CB1-CHO cells
Protocol: The functional activation of CB1 receptor is based on recombinant human CB1 receptor expressed in CHO cells (Felder et al, Mol. Pharmacol. 48: 443-450, 1995). To determine the agonist activity or inverse agonist activity of any test compound, 50 ul of CB1-CHO cell suspension are mixed with test compound and 70 ul assay buffer containing 0.34 mM 3-isobutyl-1-methylxanthine and 5.1 uM of forskolin in 96-well plates. The assay buffer is comprised of Earle's Balanced Salt Solution supplemented with 5 mM MgCl2, 1 mM glutamine, 10 mM HEPES, and 1 mg/mL bovine serum albumin. The mixture is incubated at room temperature for 30 minutes, and terminated by adding 30 ul/well of 0.5M HCl. The total intracellular cAMP level is quantitated using the New England Nuclear Flashplate and cAMP radioimmunoassay kit.
To determine the antagonist activity of test compound, the reaction mixture also contains 0.5 nM of the agonist CP55940 (or 50 nM of methanandamide), and the reversal of the CP55940 (or methanandamide) effect is quantitated with increasing concentration of the test compound. Intracellular cAMP is determined as described above. An IC50 value for the test compound is calculated from the titration curve.

[2] = target: recombinant human CB1 receptor (Homo sapiens, UniProt P21554); test: Cannabinoid Receptor-1 (CB1) Binding Assay ([3H]CP-55940 displacement); details: recombinant human CB1 receptor in CHO cell membranes, 0.6 nM [3H]CP-55940
Protocol: Binding affinity determination is based on recombinant human CB1 receptor expressed in Chinese Hamster Ovary (CHO) cells (Felder et al, Mol. Pharmacol. 48: 443-450, 1995). Total assay volume is 250 μl (240 μl CB1 receptor membrane solution plus 5 μl test compound solution plus 5 μl [3H]CP-55940 solution). Final concentration of [3H]CP-55940 is 0.6 nM. Binding buffer contains 50 mM Tris-HCl, pH7.4, 2.5 mM EDTA, 5 mM MgCl2, 0.5 mg/mL fatty acid free bovine serum albumin and protease inhibitors (Cat#P8340, from Sigma). To initiate the binding reaction, 5 μl of radioligand solution is added, the mixture is incubated with gentle shaking on a shaker for 1.5 h at 30° C. The binding is terminated by using 96-well harvester and filtering through GF/C filter presoaked in 0.05% polyethylenimine. The bound radiolabel is quantitated using scintillation counter. Apparent binding affinities for various compounds are calculated from IC50 values (DeBlasi et al., Trends Pharmacol Sci 10: 227-229, 1989).

Sequence of recombinant human CB1 receptor (P21554 whole entry): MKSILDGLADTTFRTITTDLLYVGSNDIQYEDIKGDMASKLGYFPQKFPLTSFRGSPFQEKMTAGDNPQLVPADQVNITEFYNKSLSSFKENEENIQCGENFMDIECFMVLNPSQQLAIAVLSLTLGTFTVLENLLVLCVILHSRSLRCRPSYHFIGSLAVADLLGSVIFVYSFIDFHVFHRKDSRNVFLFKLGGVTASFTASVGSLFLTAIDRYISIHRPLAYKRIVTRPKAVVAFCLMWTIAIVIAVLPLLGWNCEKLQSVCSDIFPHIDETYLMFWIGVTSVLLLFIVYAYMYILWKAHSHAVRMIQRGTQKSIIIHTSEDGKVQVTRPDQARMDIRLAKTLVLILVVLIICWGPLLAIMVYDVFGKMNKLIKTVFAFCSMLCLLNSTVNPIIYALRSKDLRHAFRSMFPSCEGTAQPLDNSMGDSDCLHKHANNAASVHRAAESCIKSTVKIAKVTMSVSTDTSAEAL
Sequence of recombinant human CB1 receptor expressed in CHO cells (P21554 whole entry): as above

Row | EC50 [1] | functional mode at CB1 receptor in the CB1 functional activity assay [1] | IC50 [2] | SMILES
1 | < 0.1 µM | functional inverse agonists | 0.002 µM | CC(C)(C)c1nc2nc(-c3ccccc3Cl)c(-c3ccc(Cl)cc3)cc2c2n[nH]c(=O)n12 [Example 1, 5-Tert-butyl-8-(2-chlorophenyl)-9-(4-chlorophenyl)pyrido[3,2-e][1,2,4]triazolo[4,3-c]pyrimidin-3(2H)-one]
2 | < 0.1 µM | functional inverse agonists | 0.01 µM | CC(=O)c1ccc(-c2cc3c(nc2-c2ccccc2Cl)nc(C(C)(C)C)n2c(=O)[nH]nc32)cc1 [Example 9, 9-(4-Acetylphenyl)-5-tert-butyl-8-(2-chlorophenyl)pyrido[3,2-e][1,2,4]triazolo[4,3-c]pyrimidin-3(2H)-one]
3 | < 0.1 µM | functional inverse agonists | 0.006 µM | CC(C)(C)c1nc2nc(-c3ccccc3Cl)c(-c3ccc(C#N)cc3)cc2c2n[nH]c(=O)n12 [Example 16, 4-[5-Tert-butyl-8-(2-chlorophenyl)-3-oxo-2,3-dihydropyrido[3,2-e][1,2,4]triazolo[4,3-c]pyrimidin-9-yl]benzonitrile]
4 | < 0.1 µM | functional inverse agonists | 0.006 µM | CC(C)(C)c1nc2nc(-c3ccccc3-c3ccc(F)cc3)c(-c3ccc(F)cc3)cc2c2n[nH]c(=O)n12 [Example 27, 5-Tert-butyl-8-(4′-fluorobiphenyl-2-yl)-9-(4-fluorophenyl)pyrido[3,2-e][1,2,4]triazolo[4,3-c]pyrimidin-3(2H)-one]
5 | < 0.1 µM | functional inverse agonists | 0.001 µM | CC(C)(C)c1nc2nc(-c3ccc(C#N)cc3Cl)c(-c3ccc(Cl)cc3)cc2c2n[nH]c(=O)n12 [Example 28, 4-[5-Tert-butyl-9-(4-chlorophenyl)-3-oxo-2,3-dihydropyrido[3,2-e][1,2,4]triazolo[4,3-c]pyrimidin-8-yl]-3-chlorobenzonitrile]
6 | < 0.1 µM | functional inverse agonists | 0.004 µM | CC(C)(C)c1nc2nc(-c3ccc(C#N)cc3C#N)c(-c3ccc(Cl)cc3)cc2c2n[nH]c(=O)n12 [Example 31, 4-[5-Tert-butyl-9-(4-chlorophenyl)-3-oxo-2,3-dihydropyrido[3,2-e][1,2,4]triazolo[4,3-c]pyrimidin-8-yl]isophthalonitrile]
7 | < 0.1 µM | functional inverse agonists | 0.011 µM | CC(C)(C)c1nc2nc(-c3ccccc3Cl)c(-c3ccc(-c4ncon4)cc3)cc2c2n[nH]c(=O)n12 [Example 32, 5-Tert-butyl-8-(2-chlorophenyl)-9-[4-(1,2,4-oxadiazol-3-yl)phenyl]pyrido[3,2-e][1,2,4]-triazolo[4,3-c]pyrimidin-3(2H)-one]
